Measurements published in patent US4535075A, “Dithiolane derivative, process for producing the same and use thereof” (Nihon Nohyaku Co., Ltd., priority 1982, dated 1985).

What was measured:
[1] = system: liver damage induced by α-naphthyl isothiocyanate (ANIT); test: Protective effect on liver damage induced by ANIT (Method 2); assay type: in vivo, mice (dd strain); conditions: 250 mg/kg p.o., ANIT 35 mg/kg p.o. after 6 h, 24 h
Description: (§1) Protective effect on liver damage induced by α-naphthyl isothiocyanate (referred to as "ANIT", hereinafter).
Test compounds, dissolved or suspended in olive oil or diethyleneglycol, were orally administered at the dose of 250 mg/kg to the mice (Six or Seven-week-old male mice-dd strain).
After 6 hours, ANIT dissolved in olive oil, was aministered orally at 35 mg/kg.
Mice were sacrificed at 24 hours after ANIT administration and blood samples were collected. The blood samples were centrifuged and plasma was obtained.
Plasma GPT activity and alkaline phosphatase activity were determined by Reitman & Frankel's method and Bessey-Lowry's method, respectively.
The activity was expressed with Karmen Unit and Bessey-Lowry Unit, respectively.

[2] = system: liver damage induced by carbon tetrachloride; test: Protective (Controlling) effect on liver damage induced by carbon tetrachloride; assay type: in vivo, mice (dd strain); conditions: 250 mg/kg p.o., CCl4 0.05 ml/kg after 6 h, 24 h; for p-GPT: CCl4 alone >2,100; for Liver Damage Index: average of 5 mice, 0 Normal, 2 Slightly recognized, 4 Clearly observable damage, 6 Heavy damage, CCl4 alone 5.0
Description: Protective (Controlling) Effect on liver damage induced by carbon tetrachloride.
Carbon tetrachloride administration induces centrilobular necrosis of the liver associated with loss of diphosphopyridine nucleotide, hepatic glycogen, coenzyme A and increase in neutral fat. Release of several enzymes from the hepatocytes, and increases of enzyme activities in the plasma are recognized as the result of the damage of the liver.
A suitable means for evaluating the degree induced by carbon tetrachloride or the degree of protection afforded by drugs is to study the plasma glutamic-pyruvic transaminase (p-GPT) activity. […]
After 6 hours, carbon tetrachloride was administered orally 0.05 ml/kg.
Animals were killed 24 hours after carbon tetrachloride administration, and the liver was grossly observed.
The plasma was obtained by centrifugation. Activity of p-GPT were determined by the method of Reitman and Frankel and expressed in Karmen units.
Score for liver damage index was as follows:
1 Each figure indicated average of 5 mice.

[3] = system: liver damage induced by α-naphthyl isothiocyanate (ANIT); test: Protective effect on liver damage induced by ANIT (Method 1); assay type: in vivo, mice; conditions: 2 x 250 mg/kg p.o., ANIT 35 mg/kg p.o., 24 h
Description: as §1
It is well known that experimental cholestasis is accomplished by administration with ANIT in mice and rats, and studied as a cholestasis model in human being.
ANIT and CCl4 induce necrosis in the liver. ANIT causes it as small focci in perilobular parenchyna and CCl4 causes centrilobular parenchymal coagulation necrosis.
From these information, the elevation of plasma GPT activity in these models are thought to have defferent characteristics.
Test compounds, dissolved or suspended in olive oil or diethyleneglycol, were orally administered 2 times at intervals of 3 hrs to mice at the dose of 250 mg/kg. At 3 hrs after the second administration with test compounds, ANIT was administered orally at 35 mg/kg.
Mice were sacrificed at 24 hrs after ANIT administration and blood samples were collected. The blood samples were centrifuged and plasma was obtained.
Plasma GPT activity and alkaline phosphatase activity were determined by Reitman & Frankel's method and Bessey-Lowry's method, respectively. The activity was expressed with Karmen Unit and Bessey-Lowry Unit, respectively.

[4] = Table 3-3, control 2.9, ANIT alone >9.6
[5] = Table 3-3, control 17.5, ANIT alone >460.2
[6] = Table 3-4, control 3.7, ANIT alone 4.5
[7] = Table 3-4, control 11.3, ANIT alone 300.3
[8] = Table 3-1, control 3.3, ANIT alone 5.3
[9] = Table 3-1, control 7.4, ANIT alone 324.0

SMILES	Alkaline phosphatase activity [1, 4]	p-GPT [1, 5]	p-GPT [2]	Liver Damage Index [2]	Alkaline phosphatase activity [1, 6]	p-GPT [1, 7]	Alkaline phosphatase activity [3, 8]	p-GPT [3, 9]	Alkaline phosphatase activity ([3]; Table 3-2, ANIT alone 5.3)	p-GPT ([3]; Table 3-2, ANIT alone >653.7)
CC(=O)C(C(=O)OCCC(C)C)=C1SC(O)C(O)S1 (centres unmarked) [Compound 43]	5.9 B-L.V.	298.9 K.U.	36 Karmen units	0.2						
CCCC(=O)C(C(=O)OCC)=C1SC(O)C(O)S1 (centres unmarked) [Compound 50]			75 Karmen units	1.2	3.0 B-L.V.	18.5 K.U.				
C=CCOC(=O)C(C(C)=O)=C1SC(O)C(O)S1 (centres unmarked) [Compound 45]	5.6 B-L.V.	136.9 K.U.	13 Karmen units	0.0						
C#CCOC(=O)C(C(C)=O)=C1SC(O)C(O)S1 (centres unmarked) [Compound 46]	5.3 B-L.V.	29.9 K.U.	16 Karmen units	0.0						
CC(=O)C(C(=O)OC(C)(C)C)=C1SC(O)C(O)S1 (centres unmarked) [Compound 41]	6.0 B-L.V.	132.7 K.U.	105 Karmen units	0.6						
CC(C)COC(=O)C(C(=O)OC(C)C)=C1SC(O)C(O)S1 (centres unmarked) [Compound 22]			9 Karmen units	0.0			5.0 B-L.V.	221.0 K.U.		
COCCOC(=O)C(C(=O)OCCOC)=C1SC(O)C(O)S1 (centres unmarked) [Compound 14]			56 Karmen units	0.2					3.1 B-L.V.	11.5 K.U.
CC(=O)C(C(=O)OC1CCCCC1)=C1SC(O)C(O)S1 (centres unmarked) [Compound 44]	5.1 B-L.V.	140.2 K.U.	73 Karmen units	0.4						
CC(=O)C(C(=O)OC(C)C)=C1SC(O)C(O)S1 (centres unmarked) [Compound 37, isopropyl 4,5-dihydroxy-1,3-dithiolan-2-ylideneacetoacetate]	4.4 B-L.V.	177.4 K.U.	149 Karmen units	0.4						
CCC(C)OC(=O)C(C(=O)OC(C)CC)=C1SC(O)C(O)S1 (centres unmarked) [Compound 6]			21 Karmen units	0.0			4.9 B-L.V.	142.0 K.U.		
CCCCC(=O)C(C(=O)OCC)=C1SC(O)C(O)S1 (centres unmarked) [Compound 52]			25 Karmen units	0.4	3.8 B-L.V.	24.1 K.U.				
CCCCOC(=O)C(C(=O)OC(C)C)=C1SC(O)C(O)S1 (centres unmarked) [Compound 21]			9 Karmen units	0.0			4.5 B-L.V.	293.1 K.U.		
CCOC(=O)C(C(=O)OCC(C)C)=C1SC(O)C(O)S1 (centres unmarked) [Compound 19]			9 Karmen units	0.4			5.1 B-L.V.	170.5 K.U.		
COCCOC(=O)C(C(C)=O)=C1SC(O)C(O)S1 (centres unmarked) [Compound 47]	4.2 B-L.V.	40.1 K.U.	25 Karmen units	0.2						
CC(=O)C(C(=O)OCC(C)C)=C1SC(O)C(O)S1 (centres unmarked) [Compound 39]	6.8 B-L.V.	70.7 K.U.	19 Karmen units	0.2						
CCCCCOC(=O)C(C(C)=O)=C1SC(O)C(O)S1 (centres unmarked) [Compound 42]	4.8 B-L.V.	30.8 K.U.	31 Karmen units	0.0						
CCCCOC(=O)C(C(C)=O)=C1SC(O)C(O)S1 (centres unmarked) [Compound 38]	5.3 B-L.V.	29.4 K.U.	31 Karmen units	0.0						
CCOC(=O)C(C(C)=O)=C1SC(O)C(O)S1 (centres unmarked) [Compound 35]	4.6 B-L.V.	> 245.0 K.U.	92 Karmen units	0.0						
CC(=O)C(C(=O)OCc1ccccc1)=C1SC(O)C(O)S1 (centres unmarked) [Compound 48]	4.1 B-L.V.	36.8 K.U.	18 Karmen units	0.0						
CC(C)CCOC(=O)C(C(=O)OCCC(C)C)=C1SC(O)C(O)S1 (centres unmarked) [Compound 9]			47 Karmen units	0.0					3.4 B-L.V.	27.2 K.U.
CCCOC(=O)C(C(C)=O)=C1SC(O)C(O)S1 (centres unmarked) [Compound 36]	3.9 B-L.V.	60.0 K.U.	30 Karmen units	0.2						
C#CCOC(=O)C(C(=O)OCC#C)=C1SC(O)C(O)S1 (centres unmarked) [Compound 13]			30 Karmen units	0.0					4.5 B-L.V.	265.6 K.U.
CCC(COC)OC(=O)C(C(=O)OC(CC)COC)=C1SC(O)C(O)S1 (centres unmarked) [Compound 16]			30 Karmen units	0.2					5.0 B-L.V.	275.2 K.U.
CCC(C)OC(=O)C(C(C)=O)=C1SC(O)C(O)S1 (centres unmarked) [Compound 40]	5.2 B-L.V.	272.5 K.U.	172 Karmen units	0.4						
COC(=O)C(C(C)=O)=C1SC(O)C(O)S1 (centres unmarked) [Compound 34]	4.2 B-L.V.	32.7 K.U.	31 Karmen units	0.0						
O=C(OCc1ccccc1)C(C(=O)OCc1ccccc1)=C1SC(O)C(O)S1 (centres unmarked) [Compound 11]			33 Karmen units	0.0					4.3 B-L.V.	437.5 K.U.
